Patent US11129840B2, “Methods for identifying novel dosing regimens” (Zavante Therapeutics, Inc., priority 2017, dated 2021)
Converted amounts (≈) assume the structure as drawn.

Key:
[1] = test system: Meropenem-NS PSA (MDR PSA isolates); assay: FOF MIC by ETEST; type: cell-based; conditions: Pseudomonas aeruginosa
Method: Meropenem-NS PSA obtained from US hospitals were studied. MICs of all antibiotics except FOF were previously determined by broth microdilution; FOF MIC was determined by ETEST® antibiotic gradient diffusion strip prior to conducting synergy assessments between FOF and aztreonam (ATM), cefepime (FEP), ceftazidime (CAZ), meropenem (MEM), piperacillin/tazobactam (TZP), and tobramycin (TOB). […] Of note, Liofilchem® MIC Test Strip was used for TZP due to commercial availability. Only organisms that were NS to the 2nd drug were assessed for synergy.

[2] = test system: Carbapenem-resistant Enterobacteriaceae (CRE) clinical isolates; assay: Susceptibility testing, CRE clinical isolates; type: cell-based
[3] = Phase I single dose pharmacokinetics in healthy adult subjects; type: in vivo, human; conditions: for half-life / CL renal / Vd / AUC(0-inf) / Cmax / Tmax: plasma
Method: Materials/methods: Phase I, open-label study evaluating IV (ZTI-01) and PO (Monurol®) FOS in healthy adult subjects. […] Blood and urine samples were collected serially before and through 48 hours post-dose and analyzed via LC/MS-MS. Noncompartmental analyses were performed via WinNonlin. Safety was monitored throughout the course of the study.

[4] = test system: CR-KPN; assay: Reference agar dilution MIC, resistant SENTRY isolates; type: cell-based, Klebsiella pneumoniae
Method: (§1) Utilizing existing interpretative criteria for the marketed oral agent (dosed at 3 g) for analysis purposes, FOS susceptibility (S) was determined for recent resistant GN and GP clinical isolates including vancomycin-resistant Enterococcus faecium (VREM) and E. faecalis (VREF); methicillin-resistant Staphylococcus aureus (MRSA) and MR coagulase negative staphylococci (MR-CoNS), Escherichia coli (EC) and Klebsiella pneumoniae (KPN) containing extended spectrum beta-lactamases (ESBL) or were carbapenem resistant (CR); and), Pseudomonas aeruginosa (PSA) non-susceptible to ceftazidime (CAZ-NS) or to meropenem (MER-NS).

[5] = test system: KPN with ESBL phenotype; assay: as above; type: cell-based, Klebsiella pneumoniae
Method: as §1

[6] = test system: Carbapenem-resistant Enterobacteriaceae (CRE) clinical isolates; assay: Agar dilution susceptibility, CRE clinical isolates; type: cell-based
[7] = test system: Propionibacterium spp.; assay: Reference agar dilution MIC, anaerobes; type: cell-based
Method: (§2) FOS was tested against over 1,400 GN and 800 GP clinical isolates collected in US medical centers as part of the SENTRY Antimicrobial Surveillance Program (96% of isolates from 2015) and a selection of 29 GN and 20 GP anaerobes. Isolates were susceptibility (S) tested against FOS and comparators by reference agar dilution (25 μg/mL glucose-6-phosphate supplementation) using existing FDA breakpoints of the oral formulation for comparative assessments.

[8] = test system: Veillonella spp.; assay: Reference agar dilution MIC, anaerobes; type: cell-based
Method: as §2

[9] = test system: Prevotella and Porphyromonas spp.; assay: Reference agar dilution MIC, anaerobes; type: cell-based
Method: as §2

[10] = test system: Clostridium spp., Finegoldia magna, and Peptostreptococcus spp.; assay: Reference agar dilution MIC, anaerobes; type: cell-based; conditions: small collection
Method: as §2

[11] = test system: ESBL-producing K. pneumoniae isolate; assay: Time-kill kinetic analysis; type: cell-based, Klebsiella pneumoniae; conditions: FOS 1, 2, 4×MIC, 4 h
Method: Broth microdilution for FOS (Mueller-Hinton broth supplemented with 25 μg/mL glucose-6-phosphate) and comparators was performed before performing TKK. TKK employed MIC multiples for FOS, and ¼ and 1×MIC of select comparators, and combinations of FOS and comparator. TKK were sampled for colony counts at T0, T2, T4, T8 and T24 hours (h). Two Klebsiella pneumoniae isolates (one KPC and one ESBL), two Pseudomonas aeruginosa isolates (non-MDR), and one Acinetobacter baumannii isolate (MDR) were tested.

[12] = test system: K. pneumoniae isolates with carbapenemase genes NDM-1 and OXA-48; assay: Reference agar dilution MIC, ZEUS baseline isolates; type: cell-based; conditions: Klebsiella pneumoniae
Method: FOS was tested against 465 GN baseline clinical isolates collected in the cUTI clinical trial. Isolates were susceptibility (S) tested against comparator agents by reference broth microdilution and FOS by reference agar dilution (25 μg/mL glucose-6-phosphate supplementation). Existing FDA FOS breakpoints of ≤64 mg/L for the oral formulation were used for comparative assessments. Screen-positive ESBL Enterobacteriaceae isolates were characterized by whole genome sequencing and analysis for the presence of known β-lactamase genes.

[13] = test system: Serratia marcescens; assay: Reference agar dilution MIC, SENTRY US isolates; type: cell-based; conditions: randomly selected
Method: as §2

[14] = test system: Staphylococcus aureus; assay: Reference agar dilution MIC, SENTRY US isolates; type: cell-based
Method: as §2

[15] = test system: Enterobacteriaceae; assay: Reference agar dilution MIC, SENTRY US isolates; type: cell-based; conditions: selected Enterobacteriaceae
Method: as §2

[16] = test system: S. pyogenes; assay: Reference agar dilution MIC, SENTRY US isolates; type: cell-based; conditions: Streptococcus pyogenes
Method: as §2

[17] = test system: E. cloacae complex; assay: Reference agar dilution MIC, SENTRY US isolates; type: cell-based; conditions: Enterobacter cloacae; randomly selected
Method: as §2

[18] = human, in vivo, 3 g PO (Monurol), mean ± SD
[19] = human, 1 g IV (ZTI-01), mean ± SD
[20] = human, 3 g PO (Monurol), mean ± SD
[21] = human, 8 g IV (ZTI-01), mean ± SD
[22] = Klebsiella pneumoniae, 17 CR-KPN

SMILES: C[C@@H]1O[C@@H]1P(=O)(O)O [FOS, fosfomycin]
- MIC90 [1]: > 1020 µg/mL
- MIC50 ([1]; 87 isolates, ETEST): 64 µg/mL
- MIC ([2]; FOS R isolate with fosA2 and SNP in glpT): 256 µg/mL (≈ 1850 µM)
- MIC ([2]; FOS-R isolate harboring fosA3): > 1020 µg/mL
- No. of isolates with FOS MIC>64 μg/mL ([2]; of 50 isolates): 3
- MIC ([2]; third FOS-R isolate (OXA-181+, CTXM-15+Kp)): 128 µg/mL (≈ 927 µM)
- fraction of the dose excreted in urine after 48 hours ([3]; 1 g IV): 74%
- CLT ([3]; 1 g IV (ZTI-01), mean ± SD): 8.7 ± 1.7 L/h
- fraction of the dose excreted in urine after 48 hours ([3]; 3 g PO): 37%
- CLT/F ([3]; 3 g PO (Monurol), mean ± SD): 17.0 ± 4.7 L/h
- fraction of the dose excreted in urine after 48 hours ([3]; 8 g IV): 80%
- CLT ([3]; 8 g IV (ZTI-01), mean ± SD): 7.8 ± 1.4 L/h
- dose dependence of plasma PK ([3]; between the 1 g and 8 g IV doses): approximately linear and proportional
- half-life ([3]; human, in vivo, 1 g IV (ZTI-01), mean ± SD): 2.4 ± 0.4 h
- Vd/F [3, 18]: 204 ± 70.7 L
- half-life [3, 18]: 9.04 ± 4.5 h
- half-life ([3]; human, in vivo, 8 g IV (ZTI-01), mean ± SD): 2.8 ± 0.6 h
- CL renal [3, 19]: 110 mL/min
- Vd [3, 19]: 29.7 ± 5.7 L
- CL renal [3, 20]: 108 mL/min
- CL renal [3, 21]: 105 mL/min
- Vd [3, 21]: 31.5 ± 10.4 L
- AUC(0-inf) [3, 19]: 120 ± 28.5 µg·h/mL
- Cmax [3, 19]: 44300 ± 7600 ng/mL
- Tmax [3, 19]: 1.1 ± 0.05 h
- AUC(0-inf) [3, 20]: 191 ± 57.6 µg·h/mL
- Cmax [3, 20]: 26800 ± 6400 ng/mL
- Tmax [3, 20]: 2.25 ± 0.4 h
- AUC(0-inf) [3, 21]: 1060 ± 192 µg·h/mL
- Cmax [3, 21]: 370000 ± 61900 ng/mL
- Tmax [3, 21]: 1.08 ± 0.01 h
- MIC50 [4, 22]: 8 µg/mL (≈ 57.9 µM)
- MIC90 [4, 22]: 64 µg/mL (≈ 464 µM)
- No. of isolates with FOS MIC≤64 μg/mL ([4]; of 17 CR-KPN): 16
- MIC ([4]; one isolate): > 256 µg/mL
- MIC ([5]; Klebsiella pneumoniae): > 256 µg/mL
- MIC50 ([5]; Klebsiella pneumoniae, 50 KPN): 4 µg/mL (≈ 29 µM)
- MIC90 ([5]; Klebsiella pneumoniae, 50 KPN): 16 µg/mL (≈ 116 µM)
- No. of isolates with FOS MIC≤64 μg/mL ([5]; of 50 KPN): 49
- % of isolates susceptible to FOS [6]: 94%
- MIC90 [6]: 512 µg/mL (≈ 3710 µM)
- MIC50 ([6]; 50 isolates): 2 µg/mL (≈ 14.5 µM)
- MIC range ([6]; C-A R isolates): 1 to 64 µg/mL
- MIC ([6]; C-A R isolates, read-out: Median MIC): 8 µg/mL (≈ 57.9 µM)
- MIC ([6]; FOS R isolate with fosA2 and SNP in glpT, read-out: MIC): 256 µg/mL (≈ 1850 µM)
- MIC ([6]; FOS-R isolate harboring fosA3, read-out: MIC): > 1020 µg/mL
- MIC ([6]; third FOS-R isolate (OXA-181+, CTXM-15+Kp), read-out: MIC): 128 µg/mL (≈ 927 µM)
- MIC [7]: > 256 µg/mL
- MIC range [8]: ≤0.03 to 0.06 µg/mL
- MIC [9]: > 256 µg/mL
- MIC range [10]: 0.5 to 32 µg/mL
- decrease in CFU [11]: 1.4-2.2 log10 CFU
- MIC ([12]; NDM-1 isolate): 8 µg/mL (≈ 57.9 µM)
- MIC ([12]; OXA-48 isolate): 64 µg/mL (≈ 464 µM)
- MIC50 [13]: 8 µg/mL (≈ 57.9 µM)
- MIC90 [13]: 16 µg/mL (≈ 116 µM)
- MIC50 [14]: 4 µg/mL (≈ 29 µM)
- MIC90 [14]: 8 µg/mL (≈ 57.9 µM)
- MIC50 [15]: 4 µg/mL (≈ 29 µM)
- MIC50 [16]: 32 µg/mL (≈ 232 µM)
- MIC90 [16]: 64 µg/mL (≈ 464 µM)
- MIC50 [17]: 8 µg/mL (≈ 57.9 µM)
- MIC90 [17]: 64 µg/mL (≈ 464 µM)
